Assay results reported in US4923888A, “Butenoic acid amides, their salts, and pharmaceutical compositions containing them” (Richter Gedeon Vegyeszeti Gyar RT, priority 1987, dated 1990).

Experiments:
[1] = test system: chronic stomach ulcer; test: acetic acid-induced chronic stomach ulcer model (promoting the healing); assay type: in vivo, rats; conditions: for Ulcer index: ± S.E.M
Protocol: The investigation of (the effect promoting the healing of) the chronic stomach ulcer induced by acetic acid was carried out as follows. In the course of examining the healing-promoting effect, one of the most widely used methods namely, the so-called acetic acid-induced chronic stomach ulcer model was used [Takagi et. al.: Jap. […] The abdominal wall of anaesthetized rats was opened and 50 μl of a 20% acetic acid solution were injected into the stomach wall, then the abdominal wall of the animal was sutured. The treatment by the test compounds was started on day 5 following the surgical operation and continued until day 14 by using the daily doses shown in Table 2. Then, the animals were killed and their stomachs were examined. The extent of ulceration was assessed by measuring the diameter of the ulcer, wherefrom the size of the damaged area could be calculated. For characterizing the degree of the cicatrization, the change in the ulcer index measured in the treated animals was related to the values measured in the untreated (control) animals and expressed as percentage values.

[2] = test system: glandular part of the stomach; test: acid-ethanol test (cytoprotective action, method of A. Robert); assay type: in vivo, rats; conditions: oral; for ED50: Rattus norvegicus, acid-ethanol test, starved rats, read-out: Cytoprotective effect ED50
From the text: Starved rats were given absolute ethanol containing concentrated hydrochloric acid which induced longitudinal bleedings in the glandular part of the stomach within a short time. This damaging effect is prevented by cytoprotective substances.
The oral ED50 values of some compounds according to the invention, which were examined in the acid-ethanol test, are shown in Table 1.

[3] = oral toxicity; assay type: in vivo
[4] = 50 × 10 mg/kg/day p.o., Table 3
[5] = 10 × 10 mg/kg/day p.o., Table 2
[6] = 10 × 10 mg/kg/day p.o., P <0.01 vs control (C only)

## NC[C@H]1CC[C@H](C(=O)Oc2ccc(CCC(=O)O)cc2)CC1 [Cetraxate, reference compound]
[1]; 150 × 10 mg/kg/day p.o., Table 3
  Change in the ulcer index related to the control (promotion of the healing): 49%

## CN1CCN(CC(=O)N2c3ccccc3C(=O)Nc3cccnc32)CC1 [Pirenzepine, reference compound]
[1]; 12 × 10 mg/kg/day p.o., Table 3
  Change in the ulcer index related to the control (promotion of the healing): 13%

## C[S+](C)CCC(N)C(=O)O (stereo not shown) [MMSC, Methylmethionine sulfonium chloride, reference compound]
[1]; [4]
  Change in the ulcer index related to the control (promotion of the healing): 59%

## Sucralfate [reference compound]
[1]; 500 × 10 mg/kg/day p.o., Table 3
  Change in the ulcer index related to the control (promotion of the healing): 55%

## CCOC(=O)C[C@H](NC(=O)/C=C/C(=O)c1ccccc1)C(=O)OCC [A, diethyl N-[4-oxo-4-phenyl-2(E)-butenoyl]-(S)-aspartate]
[1]; 40 mg/kg oral dose, statement on Table 2
  healing of the ulcer, result in words: not promoted
[1]; 40 × 10 mg/kg/day p.o., Table 2
  Change in the ulcer index related to the control (delaying of the healing): 11%
[1]; 40 × 10 mg/kg/day p.o.
  Ulcer index: 13.4 ± 2.1 mm^2 /stomach
[2]
  ED50: 3.8 mg/kg

## CCOC(=O)C[C@@H](NC(=O)/C=C/C(=O)c1ccccc1)C(=O)OCC [C, diethyl N-[4-oxo-4-phenyl-2(E)-butenoyl]-(R)-aspartate]
[1]; 3 mg/kg oral dose, statement on Table 2
  healing of the ulcer accelerated: 57%
[1]; 1 × 10 mg/kg/day p.o., Table 2
  Change in the ulcer index related to the control (delaying of the healing): 13%
[1]; 1 × 10 mg/kg/day p.o.
  Ulcer index: 13.1 ± 3.5 mm^2 /stomach
[1]; 3 × 10 mg/kg/day p.o., Table 2
  Change in the ulcer index related to the control (promotion of the healing): 57%
[1]; 3 × 10 mg/kg/day p.o., P <0.01 vs control
  Ulcer index: 5.0 ± 1.2 mm^2 /stomach
[1]; [5]
  Change in the ulcer index related to the control (promotion of the healing): 77%
[1]; [6]
  Ulcer index: 2.7 ± 1.1 mm^2 /stomach
[1]; R isomer vs reference drugs of Table 3
  healing-promoting effect compared with reference drugs: greatly exceeds that of the reference drugs
[1]; statement on Table 2
  difference between the healing-promoting effects of the R and RS modifications: highly significant difference
[2]
  ED50: 1.7 mg/kg
[2]; statement on Table 1
  cytoprotective test, comparison in words: most effective
[3]
  toxicity, oral dose of 1200 mg/kg: not toxic

## CCOC(=O)CC(NC(=O)/C=C/C(=O)c1ccccc1)C(=O)OCC (racemic) [B, diethyl N-[4-oxo-4-phenyl-2(E)-butenoyl]-(RS)-aspartate]
[1]; [5]
  Change in the ulcer index related to the control (promotion of the healing): 34%
[1]; [6]
  Ulcer index: 7.7 ± 2.8 mm^2 /stomach
[1]; 30 × 10 mg/kg/day p.o., Table 2
  Change in the ulcer index related to the control (promotion of the healing): 63%
[1]; 30 × 10 mg/kg/day p.o., P <0.01 vs control (B)
  Ulcer index: 4.2 ± 1.8 mm^2 /stomach
[1]; statement on Table 2
  difference between the healing-promoting effects of the R and RS modifications: highly significant difference
[2]
  ED50: 2.6 mg/kg

## CN/C(=N/CCSCc1nc[nH]c1C)NC#N [Cimetidine, reference compound]
[1]; [4]
  Change in the ulcer index related to the control (promotion of the healing): 17%

## CC(=O)c1ccc2c(c1)C(=O)C1(CC1)O2 [Spizofuron, reference compound]
[1]; [4]
  Change in the ulcer index related to the control (promotion of the healing): 11%
